According to PMC9865139 (Viruses, 2022):
Read-outs that look alike come from different tables or passages of the source.

Assays:
[1] = test system: vaccinia virus (strain Copenhagen); assay: microbe, parasite or virus in culture; format: cell-based
[2] = test system: Vero cell culture; details: African green monkey
[3] = test system: cowpox virus (strain Grishak), CPXV
[4] = test system: mousepox virus—ectromelia (strain K-1), ECTV
[5] = test system: mousepox virus—ectromelia (strain K-1), ECTV; assay: microbe, parasite or virus in culture; details: Vero, read-out: IC50 ECTV
[6] = test system: cowpox virus (strain Grishak), CPXV; assay: microbe, parasite or virus in culture; details: Vero, read-out: IC50 CPXV
[7] = test system: vaccinia virus; details: cited from earlier work
[8] = test system: ectromelia virus; details: mouse, in vivo; cited from earlier work
[9] = in vivo; cited from earlier work
[10] = test system: VARV; details: monkey, in vivo; cited from earlier work
[11] = in vivo; cited from earlier work; remark: listed apart in the source
[12] = test system: cowpox virus; details: cited from earlier work
[13] = test system: orthopoxviruses; details: cited from earlier work
[14] = Orthopoxvirus vaccinia, Vero, read-out: IC50, 50% virus-inhibiting concentration
[15] = Orthopoxvirus vaccinia, Vero, read-out: pIC50 (converted)

SMILES | SI, selectivity index (TC50/IC50) [1] | IC50 [1, 14] | IC50 [1, 15] | TC50, 50% cytotoxic concentration [2] | further results
O=C(NC12CC3CC(CC(C3)C1)C2)c1ccccc1 [12a] | 23 | 4.7 ± 0.37 µM | 4.68 µM | 105.67 ± 19.14 µM | 
O=C(NC1C2CC3CC(C2)CC1C3)c1ccccc1 (stereo not shown) [12b] | 15 | 6.73 ± 0.17 µM | 6.76 µM | 101.33 ± 6.11 µM | 
O=C(NC12CC3CC(CC(C3)C1)C2)c1ccc(F)cc1 [13a] | 847 | 0.41 ± 0.1 µM | 0.407 µM | 347.31 ± 38.98 µM | SI CPXV (TC50/IC50) [3]: 125; SI ECTV (TC50/IC50) [4]: 250; IC50 [5]: 1.39 ± 0.29 µM; IC50 [6]: 2.78 ± 0.42 µM
O=C(NC1C2CC3CC(C2)CC1C3)c1ccc(F)cc1 (stereo not shown) [13b] | 49 | 2.14 ± 0.13 µM | 2.14 µM | 104.00 ± 8.72 µM | 
O=C(NC12CC3CC(CC(C3)C1)C2)c1ccc(Cl)cc1 [14a] | 2662 | 0.13 ± 0.08 µM | 0.135 µM | 346.00 ± 66.00 µM | SI CPXV (TC50/IC50) [3]: 653; SI ECTV (TC50/IC50) [4]: 935; IC50 [5]: 0.37 ± 0.33 µM; IC50 [6]: 0.53 ± 0.37 µM
O=C(NC1C2CC3CC(C2)CC1C3)c1ccc(Cl)cc1 (stereo not shown) [14b] | 578 | 0.18 ± 0.04 µM | 0.182 µM | 104.00 ± 8.72 µM | 
O=C(NC12CC3CC(CC(C3)C1)C2)c1ccc(Br)cc1 [15a] | 3192 | 0.13 ± 0.08 µM | 0.129 µM | 415.00 ± 95.00 µM | SI CPXV (TC50/IC50) [3]: 1038; SI ECTV (TC50/IC50) [4]: 2767; IC50 [5]: 0.15 ± 0.08 µM; IC50 [6]: 0.4 ± 0.24 µM
O=C(NC1C2CC3CC(C2)CC1C3)c1ccc(Br)cc1 (stereo not shown) [15b] | 589 | 0.22 ± 0.07 µM | 0.219 µM |  | IC50 ([7]; read-out: IC50): 3.06 µM
O=C(NC12CC3CC(CC(C3)C1)C2)c1ccccc1[N+](=O)[O-] [16a, N-(adamantan-1-yl)-2-nitrobenzamide] |  |  |  | >100 µM | 
O=C(NC1C2CC3CC(C2)CC1C3)c1ccccc1[N+](=O)[O-] (stereo not shown) [16b, N-(adamantan-2-yl)-2-nitrobenzamide] |  |  |  | >100 µM | 
O=C(NC12CC3CC(CC(C3)C1)C2)c1cccc([N+](=O)[O-])c1 [17a, N-(adamantan-1-yl)-3-nitrobenzamide] | 8 | 0.95 ± 0.03 µM | 0.955 µM | 7.75 ± 0.75 µM | 
O=C(NC1C2CC3CC(C2)CC1C3)c1cccc([N+](=O)[O-])c1 (stereo not shown) [17b, N-(adamantan-2-yl)-3-nitrobenzamide] | 10 | 0.99 ± 0.19 µM | 1 µM | 9.50 ± 0.87 µM | 
O=C(NC12CC3CC(CC(C3)C1)C2)c1ccc([N+](=O)[O-])cc1 [18a] | 18,214 | 0.03 ± 0.01 µM | 0.0302 µM | 546.43 ± 23.98 µM | SI CPXV (TC50/IC50) [3]: 3036; SI ECTV (TC50/IC50) [4]: 6071; IC50 [5]: 0.09 ± 0.017 µM; IC50 [6]: 0.18 ± 0.02 µM
O=C(NC1C2CC3CC(C2)CC1C3)c1ccc([N+](=O)[O-])cc1 (stereo not shown) [18b, N-(adamantan-2-yl)-4-nitrobenzamide] | 12,300 | 0.04 ± 0.01 µM | 0.0398 µM | 492.00 ± 31.00 µM | SI CPXV (TC50/IC50) [3]: 447; SI ECTV (TC50/IC50) [4]: 1093; IC50 [5]: 0.45 ± 0.22 µM; IC50 [6]: 1.1 ± 0.22 µM
CCCCCCCCCCCCCCCCOCCCOP(=O)(O)CO[C@H](CO)Cn1ccc(N)nc1=O [CMX001, Brincidofovir] |  |  |  |  | protection against lethal infection with ectromelia virus [8]: does not provide a sufficient level of protection
Brc1ccc(NC2C3CC4CC(C3)CC2C4)cc1 (stereo not shown) [bromantane, reference compound] | 2 | 38.8 µM | 87.1 µM |  | IC50 ([1]; read-out: IC50, 50% virus-inhibiting concentration): 38.9 ± 0.49 µM
Nc1ccn(C[C@@H](CO)OCP(=O)(O)O)c(=O)n1 [cidofovir, Cidofovir, reference compound] | 26 | 7.63 ± 3.15 µM |  | 201.33 ± 60.10 µM | SI CPXV (TC50/IC50) [3]: 9; SI ECTV (TC50/IC50) [4]: 31; selectivity index (SI), vaccinia virus [7]: 12; IC50 [5]: 6.46 ± 3.1 µM; oral bioavailability [9]: Low; efficacy when used after the onset of smallpox lesions [10]: ineffective; nephrotoxicity [11]: significant; IC50 [6]: 23.5 ± 2.23 µM
O=C(N/N=C1/C(=O)Nc2ccccc21)NC1C2CC3CC(C2)CC1C3 (stereo not shown) [compound 1] |  |  |  |  | reduction in vaccinia virus reproduction [7]: 42%
O=C(CNC1CCCCC1)NC12CC3CC(CC(C3)C1)C2 [compound 2] |  |  |  |  | vaccinia virus inhibitory effects [7]: pronounced
CC(=O)N(OCCN(C)C)C12CC3CC(CC(C3)C1)C2 [compound 3] |  |  |  |  | vaccinia virus inhibitory effects [7]: pronounced
CN(C)CCOCC(=O)NC12CC3CC(CC(C3)C1)C2 [compound 4, tromantadine] |  |  |  |  | vaccinia virus inhibitory effects [7]: pronounced
O=C1C2C3C=CC(C4CC34)C2C(=O)N1NC(=O)C12CC3CC(CC(C3)C1)C2 (stereo not shown) [compound 6] |  |  |  |  | effective concentration against vaccinia virus [7]: below 0.05 μM; effective concentration against cowpox virus [12]: below 0.05 μM
CC1(C)[C@H]2CC=C(CNC(=O)C34CC5CC(CC(C5)C3)C4)[C@@H]1C2 [compound 7] |  |  |  |  | selectivity index (SI), vaccinia virus [7]: 1123; selectivity index (SI), cowpox virus [12]: 406
O=C(NC12CC3CC(CC(C3)C1)C2)c1ccc(C(F)(F)F)cc1 [compound 10] |  |  |  |  | selectivity index [13]: 2325
CC1(C)C2CCC1(C)C(NC(=O)c1ccc([N+](=O)[O-])cc1)C2 (stereo not shown) [compound 11] |  |  |  |  | selectivity index [13]: 31,500
O=C(NN1C(=O)C2C3C=CC(C4CC34)C2C1=O)c1ccc(F)cc1 (stereo not shown) [compound 19] |  |  |  |  | IC50 ([7]; read-out: IC50 against vaccinia virus): < 0.05 µM
